Source: article PMC10069031 (European Journal of Medical Research, 2023)

Columns and labels:
Assay type in all cases: in vivo, mouse
CT26 tumors = assay: Growth of subcutaneous CT26 tumors in BALB/c mice; conditions: CRC tumors in mice
Procedure: CT26 tumor cells were cultivated in RPMI 1640 with 2 mM L-glutamine (Gibco, Invitrogen GmbH) containing 10% fetal bovine serum (Gibco) at 37 °C and 5% CO2. Cell lines were maintained in culture for no longer than 6 months, and mycoplasma contamination was excluded by enzymatic test (MycoAlert, Lonza) prior to in vivo application. Tumor cells (2 × 10^6) were transplanted subcutaneously into 6- to 8-week-old female BALB/c mice. Control mice were subjected to sham surgery without tumor cell transplantation. Blood and tumor samples were collected from untreated control and tumor-bearing mice on days 4 and 8 (n = 3 mice/group). […] Tumor diameter was measured by caliper and body weight was determined at least twice weekly. Tumor volume was calculated using the formula 0.5 × a × b^2, where a and b are the long and short diameters of the tumor, respectively.
For tissue collection, mice were killed at predetermined time points. […] Tumors were removed, and their weights determined, then divided into three pieces, one of which was snap-frozen, one formalin fixed and paraffin embedded, and one weighed and used for FC analyses. […]
An overall comparison between treatment groups of the endpoints measured on CT26 and MC38 mice after they had been killed was performed using different statistical models. […]

CCL2 = CCL2 in blood, MC38 study; conditions: C57BL/6 mice with subcutaneous MC38 CRC tumors
Procedure: CCL2 was detected in plasma samples and tumor tissue using the U-Plex mouse MCP-1 ELISA Kit (Meso Scale Diagnostics) according to the manufacturer’s instructions. Measurements were performed at least in duplicate. For plasma, 12.5 µL was analyzed per animal.
Five analysis of variance (ANOVA) models were applied to analyze the log10-transformed values of the tumor weight in the CT26 study, the CCL2 levels in the tumor in the CT26 and MC38 studies, and the CCL2 levels in the PB in the CT26 and MC38 studies. The standard assumption of equal variances between treatment groups was applied for all endpoints, except for CCL2 levels in the tumor in the MC38 study, for which unequal variances between treatment groups were allowed. A negative binomial regression model was applied to evaluate percentages of CD115^hi and F4/80^hi cells within the CD45^+ cell population in PB and tumor tissue, respectively.
In vivo passaging was initiated by transplanting fragments of cryo-preserved MC38 tumors of early passages (<p5) subcutaneously into 6–8-week-old female C57BL/6 mice. Tumors were grown to a size of about 1000 mm^3, excised, cut into fragments edging approximately 2 mm, and used for further passaging in vivo for a maximum of 10 passages. Necrotic areas were removed. […]

CD115^hi cells in blood = assay: CD115^hi cells in blood, MC38 study; conditions: C57BL/6 mice with subcutaneous MC38 CRC tumors
Procedure: For tumors, single-cell suspensions were prepared from the fresh tumor pieces using a mouse Tumor Dissociation Kit (Miltenyi Biotec). The final cell pellets were resuspended in 1 mL FC buffer (PBS with 2 mM EDTA, 0.5% bovine serum albumin). Then, 100 µL of the tumor single-cell suspensions and the EDTA blood samples were stained by addition of the antibody cocktail and incubated for 10 min at 4 °C according to the manufacturer’s instructions. After antibody incubation, blood samples were incubated with 2–3 mL lysis buffer (0.17 M NH4Cl, 10 mM KHCO3, 0.1 mM EDTA) for 10–20 min at RT to lyse and remove red blood cells. Subsequently, samples were centrifuged at 300 g for 5 min at 4 °C and cells were washed with 2–3 mL FC buffer. Tumor samples were washed immediately after antibody incubation with 2–3 mL FC buffer without the lysis procedure and centrifuged at 300 g for 5 min at 4 °C. […] Next, 50 µL of blood and 70 µL of tumor cell suspensions were analyzed by FC using MACSQuant Analyzer 10 and MACSQuant Analyzer 16 (Miltenyi Biotec). FC data were analyzed with the FlowLogic software (Inivai Technologies distributed through Miltenyi Biotec; version 7.2.1) and gated as shown in Fig. S1 (see Additional file 2), whereby up to seven subpopulations were identified in the CD45^+ fraction using antibodies against F4/80 and CD115. […]

`CNC(=O)c1cc(Oc2ccc(NC(=O)Nc3ccc(Cl)c(C(F)(F)F)c3)c(F)c2)ccn1` [REG, Regorafenib] was tested, and the “partial or complete remission” value (CT26 tumors) was “did not induce partial or complete remission”, the “tumor growth vs vehicle” value (CT26 tumors) was “significantly inhibited” and the “CCL2 levels in blood” value (CCL2) was “without affecting”. The “number of CD115^hi cells in the blood” value (CD115^hi cells in blood) was “reduced”.
